Results published in patent US20220324835A1 (Nurix Therapeutics, Inc., priority 2018, published 2022).

Tests used:
Cbl-b [1] = target: T1, Cbl-b (Homo sapiens, UniProt Q13191); experiment: Cbl-b activity assay (Cbl-b inhibition assay), TR-FRET of Cbl-b interaction with UbcH5B-Ub; type: biochemical; details: assay buffer with 100 mM NaCl, 60 nM Src kinase; read-out: Cbl-b activity IC50
Procedure, shortened: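 Compound-treated Cbl-b was incubated 1.5 h with Src kinase (60 nM final; 30 nM for asterisked values, which also used 50 mM instead of 100 mM NaCl), 1 mM ATP and 5 mM MgCl2. Binding to fluorescent Ub-loaded UbcH5B (C85K mutant) was then read by TR-FRET after 1 h more.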

T-cell [2] = experiment: CD25 cell surface staining on T-cells stimulated with anti-CD3 antibody alone (Biological Example 2); type: cell-based; details: primary human total T-cells, baseline = anti-CD3/anti-CD28 stimulated cells without inhibitor, read-out: CD25 staining, Anti-CD3 stimulation, fold change over baseline; for fold induction at 1 µM: 1 μM compound; for fold induction at 8 µM: 8 μM compound
T-cell [3] = experiment: IL-2 secretion from T-cells stimulated with anti-CD3 antibody alone (Biological Example 2); type: cell-based; details: primary human total T-cells, read-out: IL-2 secretion, Anti-CD3 stimulation, fold change over baseline; for fold induction at 1 µM: 1 μM compound; for fold induction at 8 µM: 8 μM compound
T-cell [4] = experiment: CD25 cell surface staining on T-cells co-stimulated with anti-CD3 and anti-CD28 antibody (Biological Example 2); type: cell-based, human; details: Homo sapiens, T-cell, primary human total T-cells, baseline = anti-CD3/anti-CD28 stimulated cells without inhibitor, read-out: CD25 staining, Anti-CD3/Anti-CD28 stimulation, fold change over baseline; for fold induction at 0.3 µM: 0.3 μM compound; for fold induction at 1 µM: 1 μM compound; for fold induction at 4 µM: 4 μM compound
Procedure, shortened: (§1)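 Values are fold-change over baseline: readings (IL-2 release, CD25 staining) from inhibitor-treated T-cells divided against untreated cells […]. No detailed procedure stated.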

Cbl-b [5] = target: T1, Cbl-b; experiment: Cbl-b inhibition assay (Cbl-b activity assay, FRET, Biological Example 1; 100 mM NaCl, 60 nM Src kinase); type: biochemical; details: upper bound stated in text lists; read-out: IC50 values in the Cbl-b inhibition assay of Biological Example 1
Procedure, shortened: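 Steps: Src kinase phosphorylates N-terminal biotinylated Avi-tagged Cbl-b; phosphorylated Cbl-b binds Bodipy-fluorescein ubiquitin-loaded UbcH5B; streptavidin-terbium on Cbl-b sits close to the fluorescein label, producing FRET. Inhibitors block UbcH5B-Ub binding.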

Cbl-b (residues 36-427) = Cbl-b (residues 36-427) (Homo sapiens, UniProt Q13191); experiment: Cbl-b binding assay (SPR, Biacore T200); details: 20° C., 1:1 binding model
Sequence of Cbl-b (residues 36-427) (Q13191 36-427): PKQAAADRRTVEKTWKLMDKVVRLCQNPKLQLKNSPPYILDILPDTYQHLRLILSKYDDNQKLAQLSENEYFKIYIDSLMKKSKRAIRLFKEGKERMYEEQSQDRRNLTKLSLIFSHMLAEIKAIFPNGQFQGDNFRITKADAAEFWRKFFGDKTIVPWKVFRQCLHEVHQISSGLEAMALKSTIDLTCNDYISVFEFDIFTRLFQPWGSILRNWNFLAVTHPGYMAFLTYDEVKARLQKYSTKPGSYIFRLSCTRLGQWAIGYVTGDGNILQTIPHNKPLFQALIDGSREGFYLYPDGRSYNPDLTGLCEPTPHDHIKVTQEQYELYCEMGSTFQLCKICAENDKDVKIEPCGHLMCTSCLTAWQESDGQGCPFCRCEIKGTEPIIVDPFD
Procedure, shortened: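 NeutrAvidin capture chip, 20° C; 50 s injections at 50 μl/min, 90-180 s dissociation; 0.3 M NaCl regeneration. Asterisked column: 50 mM NaCl buffer and 30 nM Src kinase in place of 100 mM NaCl and 60 nM Src kinase. 1:1 fit.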

T-cell [6] = experiment: IL-2 secretion from T-cells co-stimulated with anti-CD3 and anti-CD28 antibody (Biological Example 2); type: cell-based, human; details: Homo sapiens, T-cell, primary human total T-cells, baseline = anti-CD3/anti-CD28 stimulated cells without inhibitor, read-out: IL-2 secretion, Anti-CD3/Anti-CD28 stimulation, fold change over baseline; for fold induction at 0.3 µM: 0.3 μM compound; for fold induction at 1 µM: 1 μM compound; for fold induction at 4 µM: 4 μM compound
Procedure, shortened: as §1

T1 sequence (Q13191 36-427): as above

| SMILES | IC50 (Cbl-b [1]) [nM] | fold induction at 1 µM (T-cell [2]) | fold induction at 8 µM (T-cell [2]) | fold induction at 1 µM (T-cell [3]) | fold induction at 8 µM (T-cell [3]) | fold induction at 0.3 µM (T-cell [4]) | fold induction at 1 µM (T-cell [4]) | fold induction at 4 µM (T-cell [4]) | IC50 (Cbl-b [5]) [nM] | Kd (Cbl-b (residues 36-427)) [nM] | fold induction at 0.3 µM (T-cell [6]) | fold induction at 1 µM (T-cell [6]) | fold induction at 4 µM (T-cell [6]) |
| --- | --- | --- | --- | --- | --- | --- | --- | --- | --- | --- | --- | --- | --- |
| C[C@H](Cc1nncn1C)c1cccc(N2Cc3c(cc(N[C@H]4CCNC4)cc3C(F)(F)F)C2=O)c1 [Compound 379, 2-(3-((R)-1-(4-methyl-4H-1,2,4-triazol-3-yl)propan-2-yl)phenyl)-6-(((S)-pyrrolidin-3-yl)amino)-4-(trifluoromethyl)isoindolin-1-one] | < 100 | 0.801 to 1 | > 1 | 0.101 to 0.15 | 0.151 to 0.2 | 1.01 to 1.3 | 1.01 to 1.3 | 1.01 to 1.3 | ≤ 100 | < 100 | 1.01 to 2.5 | 2.51 to 5 | 2.51 to 5 |
| C[C@H](Cc1nncn1C)c1cccc(N2Cc3c(cc(N(C)[C@H]4CCNC4)cc3C(F)(F)F)C2=O)c1 [Compound 380, 6-(methyl((S)-pyrrolidin-3-yl)amino)-2-(3-((R)-1-(4-methyl-4H-1,2,4-triazol-3-yl)propan-2-yl)phenyl)-4-(trifluoromethyl)isoindolin-1-one] | < 100 | 0.801 to 1 | > 1 | 0.151 to 0.2 | > 0.201 | 1.31 to 1.5 | 1.31 to 1.5 | 1.51 to 1.75 | ≤ 100 | < 100 | 2.51 to 5 | 2.51 to 5 | > 7.5 |
| Cc1n[nH]c(C)c1-c1cc2c(c(C(F)(F)F)c1)CN(c1cccc([C@H](C)Cc3nncn3C)c1)C2=O [Compound 378, 6-(3,5-dimethyl-1H-pyrazol-4-yl)-2-{3-[(2R)-1-(4-methyl-4H-1,2,4-triazol-3-yl)propan-2-yl]phenyl}-4-(trifluoromethyl)-2,3-dihydro-1H-isoindol-1-one] | < 100 | > 1 | > 1 | > 0.201 | > 0.201 | 1.31 to 1.5 | 1.51 to 1.75 | > 1.76 | ≤ 100 | < 100 | 2.51 to 5 | > 7.5 | > 7.5 |
| Cn1cnnc1C(F)(F)[C@](C)(F)c1cccc(N2Cc3c(cc(CN4CC[C@@H](S(C)(=O)=O)C4)cc3C(F)(F)F)C2=O)c1 [Compound 458, 6-(((R)-3-(Methylsulfonyl)pyrrolidin-1-yl)methyl)-2-(3-((R)-1,1,2-trifluoro-1-(4-methyl-4H-1,2,4-triazol-3-yl)propan-2-yl)phenyl)-4-(trifluoromethyl)isoindolin-1-one] | < 100 | 0.801 to 1 | > 1 | 0.151 to 0.2 | > 0.201 | 1.01 to 1.3 | 1.01 to 1.3 | 1.31 to 1.5 | ≤ 100 | < 100 | 2.51 to 5 | 5 to 7.5 | > 7.5 |
| Cc1[nH]ncc1-c1cc2c(c(C(F)(F)F)c1)CN(c1cccc([C@H](C)Cc3nncn3C)c1)C2=O [Compound 381, 6-(5-methyl-1H-pyrazol-4-yl)-2-{3-[(2R)-1-(4-methyl-4H-1,2,4-triazol-3-yl)propan-2-yl]phenyl}-4-(trifluoromethyl)-2,3-dihydro-1H-isoindol-1-one] | < 100 | 0.801 to 1 | > 1 | 0.151 to 0.2 | > 0.201 | 1.31 to 1.5 | 1.51 to 1.75 | 1.51 to 1.75 | ≤ 100 | < 100 | 2.51 to 5 | 5 to 7.5 | > 7.5 |
| Cc1c[nH]nc1C[C@@H](C)c1cccc(N2Cc3c(cc(C(=O)N4CCC(O)C4)cc3C(F)(F)F)C2=O)c1 (stereo in doubt) [Compound 463, 6-((S)-3-hydroxypyrrolidine-1-carbonyl)-2-(3-((R)-1-(4-methyl-1H-pyrazol-3-yl)propan-2-yl)phenyl)-4-(trifluoromethyl)isoindolin-1-one] | < 100 | 0.801 to 1 | > 1 | 0.101 to 0.15 | > 0.201 | 1.01 to 1.3 | 1.01 to 1.3 | 1.31 to 1.5 | ≤ 100 | < 100 | 1.01 to 2.5 | 2.51 to 5 | > 7.5 |
| Cc1c[nH]nc1C[C@@H](C)c1cccc(N2Cc3c(cc(C(=O)N4C[C@@H](O)C[C@H]4C)cc3C(F)(F)F)C2=O)c1 [Compound 464, 6-((2R,4S)-4-hydroxy-2-methylpyrrolidine-1-carbonyl)-2-(3-((R)-1-(4-methyl-1H-pyrazol-3-yl)propan-2-yl)phenyl)-4-(trifluoromethyl)isoindolin-1-one] | < 100 | > 1 | > 1 | 0.151 to 0.2 | > 0.201 | 1.01 to 1.3 | 1.01 to 1.3 | 1.31 to 1.5 | ≤ 100 | < 100 | 1.01 to 2.5 | 2.51 to 5 | > 7.5 |
| C[C@H](CO)Nc1cc([C@H](C)Cc2nncn2C)cc(N2Cc3c(cccc3C(F)(F)F)C2=O)n1 [Compound 366, 2-(6-((R)-1-hydroxypropan-2-ylamino)-4-((R)-1-(4-methyl-4H-1,2,4-triazol-3-yl)propan-2-yl)pyridin-2-yl)-4-(trifluoromethyl)isoindolin-1-one] | 100 to 300 | 0.801 to 1 | > 1 | 0.051 to 0.1 | > 0.201 | 1.01 to 1.3 | 1.01 to 1.3 | 1.31 to 1.5 | ≤ 300 | 100 to 300 | 1.01 to 2.5 | 2.51 to 5 | 5 to 7.5 |
| Cn1cnnc1[C@@H]1C[C@@H]1c1cccc(N2Cc3c(cc(C#N)cc3C(F)(F)F)C2=O)c1 [Compound 408, 2-(3-((1S,2R)-2-(4-methyl-4H-1,2,4-triazol-3-yl)cyclopropyl)phenyl)-3-oxo-7-(trifluoromethyl)isoindoline-5-carbonitrile] | 100 to 300 | 0.601 to 0.8 | 0.801 to 1 | < 0.05 | 0.101 to 0.15 | 1.01 to 1.3 | 1.01 to 1.3 | 1.01 to 1.3 | ≤ 300 | 100 to 300 | 1.01 to 2.5 | 1.01 to 2.5 | 2.51 to 5 |
| C[C@H](Cc1nncn1C)c1cccc(N2Cc3c(cc(C(C)(C)O)cc3C(F)(F)F)C2=O)c1 [Compound 374, (R)-6-(2-hydroxypropan-2-yl)-2-(3-(1-(4-methyl-4H-1,2,4-triazol-3-yl)propan-2-yl)phenyl)-4-(trifluoromethyl)isoindolin-1-one] | < 100 | 0.801 to 1 | > 1 | 0.151 to 0.2 | > 0.201 | 1.01 to 1.3 | 1.31 to 1.5 | 1.31 to 1.5 | ≤ 100 | 100 to 300 | 2.51 to 5 | 5 to 7.5 | > 7.5 |
